According to US5977442A, “Salicylic acid induced map kinase and its use for enhanced disease resistance in plants” (priority 1997, dated 1999):

Tests used:
[1] = system: p48 SIP kinase; experiment: In-gel kinase activity assay (MBP substrate) in extracts of treated tobacco suspension cells: activation of p48 SIP kinase; assay type: cell-based, Nicotiana tabacum cv Xanthi nc
Protocol: (§1) The cell suspension culture was derived from callus tissue originated from leaves of Nicotiana tabacum cv Xanthi nc and grown in MS medium supplemented with 1 mg/L α-naphthaleneacetic acid, 0.1 mg/L 2,4-dichlorophenoxyacetic acid, 0.1 mg/L benzyladenine, and 3% sucrose. Log phase cells were used three days after a 1:10 dilution. Treatment with H2 O2, SA and its analogues was performed in the original flasks in the dark to avoid any stresses associated with transfer. At various times, 10 mL cells (approximately 0.2 to 0.3 g fresh weight of cells) were harvested by filtration. The cells were quickly frozen in liquid nitrogen and stored at -80° C. until analysis.
Leaf discs were first ground to a fine powder in 1.5 ml microcentrifuge tubes using small plastic pestles. After adding 0.25 mL extraction buffer (100 mM Hepes, pH 7.5, 5 mM EDTA, 5 mM EGTA, 10 mM DTT, 10 mM Na3 VO4, 10 mM NaF, 50 mM β-glycerolphosphate, 1 mM phenylmethylsulfonyl fluoride, 5 μg/mL antipain, 5 μg/mL aprotinin, 5 μg/mL leupeptin, 10% glycerol, 7.5% polyvinylpolypyrrolidone), the mixture was sonicated for 15 seconds with a W-375 Sonicator (Heat System-Ultrasonics, Inc., N.Y.) fitted with a microprobe at setting 4 and 80% duty cycle. To prepare extracts from treated cells, cells were mixed with two volumes (w/v) of extraction buffer and were then sonicated twice for 15 seconds each in 1.5 mL microcentrifuge tube. After centrifugation at 13,000 rpm for 20 minutes, supernatants were transferred into clean tubes, quickly frozen in liquid nitrogen and stored at -80° C.
The in-gel kinase assay was performed as described previously (Zhang et al., 1993). Extracts containing 10 μg protein were electrophoresed on 10% SDS-polyacrylamide gels imbedded with either 1 mg/mL of casein, 1 mg/mL histone (Type III-SS, Sigma, MO), 1 mg/mL BSA, or 0.25 mg/mL of MBP in the separating gel as substrate for the kinase. After electrophoresis, SDS was removed by washing the gel with washing buffer (25 mM Tris, pH 7.5, 0.5 mM DTT, 0.1 mM Na3 VO4, 5 mM NaF, 0.5 mg/mL BSA, 0.1% Triton X-100 [v/v]). The buffer was changed three times, each for 30 minutes at room temperature. The kinases were allowed to renature in 25 mM Tris, pH 7.5, 1 mM DTT, 0.1 mM Na3 VO4, 5 mM NaF at 4° C. overnight with three changes of buffer. The gel was then incubated at room temperature in 30 mL reaction buffer (25 mM Tris, pH 7.5, 2 mM EGTA, 12 mM MgCl2, 1 mM DTT, 0.1 mM Na3 VO4) with 200 nM ATP plus 50 μCi γ-^32 P-ATP (3000 Ci/mmole) for 60 minutes. The reaction was stopped by transferring the gel into 5% TCA (w/v)/1% NaPPi (w/v). The unincorporated γ-^32 P-ATP was removed by washing in the same solution for at least 6 hours with 5 changes of buffer. The gel was dried onto 3 MM paper and exposed to Kodak XAR-5 film. Prestained size markers (Bio-Rad, CA) were used to calculate the size of the kinases. Quantitation of the relative kinase activities were done using a phosphoimager (Molecular Dynamics Inc., CA).

[2] = system: 58 kDa, 52 kDa, and 40 kDa kinases; details: 1 mM and 2 mM
Protocol: as §1
Leaf discs were first ground to a fine powder in 1.5 ml microcentrifuge tubes using small plastic pestles. […]
The in-gel kinase assay was performed as described previously (Zhang et al., 1993). […] Quantitation of the relative kinase activities were done using a phosphoimager (Molecular Dynamics Inc., CA).

[3] = system: phosphotyrosine-containing 48 kDa protein; experiment: Immunoblot analysis with anti-phosphotyrosine antibody 4G10 of treated cell extracts; assay type: cell-based, Nicotiana tabacum cv Xanthi nc; details: 250 μM SA or 2 mM H2 O2; FIG. 4A
Protocol: as §1
(§2) Protein extracts were separated by SDS-PAGE on 10% acrylamide gels, and the proteins were transferred to nitrocellulose membrane by semidry electroblotting. The membrane was blocked for 2 hours in TBS buffer (20 mM Tris, pH 7.5, 150 mM NaCl, 0.1% Tween 20, 0.1 mM Na3 VO4) with 10% BSA at room temperature, and then incubated with the phosphotyrosine-specific monoclonal antibody 4G10 (Upstate Biotechnology Incorporated, NY) in TBS buffer with BSA for 1 hr. After the blot was incubated with horseradish peroxidase-conjugated secondary antibody, the complexes were visualized using an enhanced chemiluminescence kit (DuPont, MA) following the manufacture's instructions.

[4] = system: 200 kDa and 75 kDa kinase activity bands; details: long exposure of autoradiogram
Protocol: as §1
The in-gel kinase assay was performed as described previously (Zhang et al., 1993). Extracts containing 10 μg protein were electrophoresed on 10% SDS-polyacrylamide gels imbedded with either 1 mg/mL of casein, 1 mg/mL histone (Type III-SS, Sigma, MO), 1 mg/mL BSA, or 0.25 mg/mL of MBP in the separating gel as substrate for the kinase. After electrophoresis, SDS was removed by washing the gel with washing buffer (25 mM Tris, pH 7.5, 0.5 mM DTT, 0.1 mM Na3 VO4, 5 mM NaF, 0.5 mg/mL BSA, 0.1% Triton X-100 [v/v]). The buffer was changed three times, each for 30 minutes at room temperature. […] Quantitation of the relative kinase activities were done using a phosphoimager (Molecular Dynamics Inc., CA).

[5] = system: tyrosine-phosphorylated proteins; details: in response to H2 O2
Protocol: as §1, §2

[6] = system: kinase activities in extracts from SA-treated cells (casein, histone, or BSA as substrate); experiment: In-gel kinase activity assay with casein, histone or BSA as substrate in extracts of treated tobacco suspension cells; assay type: cell-based, Nicotiana tabacum cv Xanthi nc
[7] = system: p48 SIP kinase; experiment: Activation of p48 SIP kinase in tobacco leaves after injection; assay type: in vivo, N. tabacum cv Xanthi nc
Protocol: (§3) Tobacco plants (N. tabacum cv Xanthi nc) were grown at 22° C. in a growth room programmed for a 14-hr light cycle. Plants approximately 7-8 weeks old were used for experiments. For temperature-shift experiments, plants were transferred to a 32° C. chamber one day before inoculation. TMV strain U1 was used at a concentration of 1 μg/mL in 50 mM phosphate buffer, pH 7.0; mock inoculation was done with buffer only. After 48 hours infected plants were shifted back to 22° C. and leaf discs (1 cm in diameter) were taken at the indicated times. For water or SA treatment, one leaf from each plant was injected with solution using a syringe until the entire leaf was infiltrated.

[8] = system: 44 kDa kinase; experiment: Activation of 44 kDa kinase in tobacco leaves; assay type: in vivo, N. tabacum cv Xanthi nc; details: SA treatment of tobacco plants
Protocol: as §3

[9] = system: the two major H2 O2 -scavenging enzymes; details: Chen et al., 1993; Durner and Klessig, 1995; cited from earlier work
[10] = system: p48 SIP kinase; experiment: Treatment of p48 SIP kinase with phosphatases; assay type: biochemical, tobacco; details: okadaic acid against PP1; Na3 VO4 against YOP
Protocol: FIG. 13 is a histogram showing inactivation of p48 SIP kinase by phosphatase treatment. Approximately 20 units of the SIP kinase was treated with either the serine/threonine-specific phosphatase PPI (0.1 units) or the tyrosine-specific protein phosphatase YOP (0.5 units) for 10 min (bars 2 to 5) or 30 min (bars 7 to 10) at 30° C. in the presence or absence of a phosphatase inhibitor. Bars 1 and 6 represent the control without phosphatase or phosphatase inhibitor; bars 2 and 7, PPI; bars 3 and 8, PPI plus okadaic acid (1 μM); bars 4 and 9, YOP; bars 5 and 10, YOP plus Na3 VO4 (1 mM). Before assaying for SIP kinase activity, the phosphatase inhibitors were added to all of the reactions to the same final concentrations.
The phosphatase inhibitors present in the purified p48 SIP kinase preparation were first removed by dialysis against buffer B lacking β-glycerophosphate and Na3 VO4 in a 0.5-mL 10 K dialysis cassette (Slide-A-Lyzer; Pierce). For treatment with serine/threonine protein phosphatase PP1 (Calbiochem, San Diego, Calif.), MnCl2, DTT, and BSA were added to aliquots of the SIP kinase preparation to final concentrations of 200 μm, 5 mM and 100 μg/mL respectively. Then 0.1 unit of PP1 was added, and the reaction mixture was incubated at 30° C. in the presence or absence of 1 μM of the phosphatase inhibitor okadaic acid (Calbiochem). […]

[11] = system: TMV; details: Dunigan et al., 1995; cited from earlier work
[12] = system: PR-1 gene expression; details: Conrath et al., 1997; cited from earlier work
[13] = system: p48 SIP kinase (precipitation by 4G10 antibody); experiment: Immunoprecipitation-kinase activity assay with 4G10 antibody and phospho-amino acid competitors; assay type: binding, Nicotiana tabacum cv Xanthi nc; details: 1 mM competitor
Protocol: About 25 μL packed volume of protein A-agarose was added, and the incubation was continued for another 2 hours. Agarose bead-protein complexes were pelleted by brief centrifugation. After washing with immunoprecipitation buffer three times, 1× SDS sample buffer was added and the sample boiled for 3 minutes. After centrifugation, the supernatant fraction was electrophoresed on 10% SDS-PAGE gel, and the in-gel kinase assay was performed.

[14] = target: myelin basic protein (MBP)

## OO [H2 O2, hydrogen peroxide]
[1]; 1 mM and 2 mM
  activation of p48 SIP kinase by H2O2: induced several kinase activities including the p48 SIP kinase
[1]; 60 minutes after addition of H2 O2
  kinase activity at 60 minutes after addition: remained at peak levels
[1]; tobacco suspension cells, data not shown for analogues
  duration of SIP kinase activation relative to SA: more sustained compared to that induced by SA
[2]
  activation of other kinases (58, 52, 40 kDa): induced several kinase activities
[3]
  tyrosine phosphorylation of 48 kDa protein: prolonged phosphorylation of tyrosine residue(s) on a 48 kDa protein
[4]
  weakly induced kinase activity bands at 200 kDa and 75 kDa: weakly induced
[5]
  number of proteins phosphorylated on tyrosine residues: at least four

## O=C(O)c1ccccc1O [SA, salicylic acid]
[1]; 250 μM SA, tobacco suspension cells
  time to peak of p48 SIP kinase activation: ≤ 5 min
[1]; 250 μM, tobacco suspension cells, MBP substrate
  activation of 48 kDa (p48 SIP) kinase: activated a 48 kDa kinase
[1]; second addition up to 4 hr after initial treatment
  reactivation of SIP kinase by second addition of SA: did not reactivate the SIP kinase
[1]; tobacco suspension cells
  minimum concentration of SA required to activate p48 kinase: 100 µM
[1]; tobacco suspension cells, FIG. 1E
  concentration at which maximum p48 kinase activity obtained: 500 µM
[6]
  increase in kinase activities with casein, histone, or BSA as substrate: no increases in kinase activities were detected
[3]
  tyrosine phosphorylation of 48 kDa protein: transient increase in the level of a phosphotyrosine-containing 48 kDa protein
[7]; leaves first injected with water, then SA
  activation of p48 SIP kinase by second injection: dramatic activation of the p48 SIP kinase
[7]; single injection 500 μM SA
  activation of kinase in leaves, first (rapid) peak: return to basal level: about 30 minutes
  time of second, more prolonged peak of kinase activation: approximately 3 hours
[8]
  activation of p44 kinase: also evident after SA treatment of tobacco plants
[9]
  inhibition of the two major H2O2-scavenging enzymes: can inhibit the two major H2 O2 -scavenging enzymes

## C=C1[C@@H](O)[C@@H]2O[C@]3(CC[C@H](/C=C/[C@@H](C)[C@@H]4CC(C)=C[C@@]5(O[C@H](C[C@@](C)(O)C(=O)O)CC[C@H]5O)O4)O3)CC[C@H]2O[C@@H]1[C@@H](O)C[C@H](C)[C@H]1O[C@@]2(CCCCO2)CC[C@H]1C [okadaic acid]
[10]
  prevention of phosphatase inactivation of SIP kinase: could be prevented
[11]
  inhibition of lesion formation after TMV infection: lesion formation after TMV infection was inhibited
[12]
  blocking of SA-mediated induction of PR-1 gene expression: blocked the SA-mediated induction of PR-1 gene expression

## N[C@@H](Cc1ccc(OP(=O)(O)O)cc1)C(=O)O [phosphotyrosine]
[13]
  inhibition of precipitation of p48 SIP kinase: inhibited precipitation of the p48 SIP kinase

## p48 SIP kinase (salicylic acid-induced protein kinase), activated form from SA- or H2O2-treated tobacco cells, in extracts or purified (enzyme)
[14]
  phosphorylation of MBP, in-solution kinase assay (Km for MBP): 0.19 mg/mL
